Laboratory results published in the supplement of paper PMC10307832.

Experiments:
Experiment in all cases: relative viability (nuclei count vs DMSO), 5 days (fraction); higher = more cells survive
LOU-NH91 = tested on: LOU-NH91
Procedure, shortened: (§1)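 Lung cancer cell lines in 1536-well plates got either a single drug or a fixed anchor-drug dose together with five library-drug doses (not always all listed) in √10 steps, by pin tool, on the day after seeding. Nuclei were counted after 5 days, and relative viability is the treated-to-vehicle ratio of nuclei counts. Values are medians of duplicate plates.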

NCI-H460 = tested on: NCI-H460
Procedure, shortened: as §1

NCI-H1734 = tested on: NCI-H1734
Procedure, shortened: as §1

NCI-H1793 = tested on: NCI-H1793
Procedure, shortened: as §1

NCI-H2228 = tested on: NCI-H2228
Procedure, shortened: as §1

ABC-1 = tested on: ABC-1
Procedure, shortened: as §1

NCI-H1755 = tested on: NCI-H1755
Procedure, shortened: as §1

CAL-12T = tested on: CAL-12T
Procedure, shortened: as §1

NCI-H1395 = tested on: NCI-H1395
Procedure, shortened: as §1

NCI-H2087 = tested on: NCI-H2087
Procedure, shortened: as §1

ChaGo-K-1 = tested on: ChaGo-K-1
Procedure, shortened: as §1

NCI-H1944 = tested on: NCI-H1944
Procedure, shortened: as §1

LU99A = tested on: LU99A
Procedure, shortened: as §1

UMC-11 = tested on: UMC-11
Procedure, shortened: as §1

RERF-LC-KJ = tested on: RERF-LC-KJ
Procedure, shortened: as §1

NCI-H1651 = tested on: NCI-H1651
Procedure, shortened: as §1

NCI-H2405 = tested on: NCI-H2405
Procedure, shortened: as §1

LC-2-ad = tested on: LC-2-ad
Procedure, shortened: as §1

NCI-H3122 = tested on: NCI-H3122
Procedure, shortened: as §1

PC-3 [JPC-3] = tested on: PC-3 [JPC-3]
Procedure, shortened: as §1

NCI-H2170 = tested on: NCI-H2170
Procedure, shortened: as §1

`O=C(O)c1ccc(-c2c[nH]c3ncc(-c4ccccc4)cc23)cc1C1CCCC1` + CCNC(=O)c1noc(-c2cc(C(C)C)c(O)cc2O)c1-c1ccc(CN2CCOCC2)cc1 [Luminespib] (partner 0.01 µM) showed a relative viability (LOU-NH91; first compound 0.04 µM) of 0.323, a relative viability (LOU-NH91; first compound 0.1265 µM) of 0.33 and a relative viability (LOU-NH91; first compound 0.4 µM) of 0.278. The relative viability (LOU-NH91; first compound 1.265 µM) was 0.472, the relative viability (NCI-H460; first compound 0.04 µM) was 0.0285 and the relative viability (NCI-H460; first compound 0.1265 µM) was 0.0329. The relative viability (NCI-H460; first compound 0.4 µM) was 0.0398, the relative viability (NCI-H460; first compound 1.265 µM) was 0.0257 and the relative viability (NCI-H1734; first compound 0.04 µM) was 0.186. The relative viability (NCI-H1734; first compound 0.1265 µM) was 0.194, the relative viability (NCI-H1734; first compound 0.4 µM) was 0.224 and the relative viability (NCI-H1734; first compound 1.265 µM) was 0.202. The relative viability (NCI-H1793; first compound 0.04 µM) was 0.19, the relative viability (NCI-H1793; first compound 0.1265 µM) was 0.166 and the relative viability (NCI-H1793; first compound 0.4 µM) was 0.151. The relative viability (NCI-H1793; first compound 1.265 µM) was 0.148, the relative viability (NCI-H2228; first compound 0.04 µM) was 0.144 and the relative viability (NCI-H2228; first compound 0.1265 µM) was 0.188. It also gave a relative viability (NCI-H2228; first compound 0.4 µM) of 0.0961, a relative viability (NCI-H2228; first compound 1.265 µM) of 0.0961 and a relative viability (ABC-1; first compound 0.1265 µM) of 0.572. For the same compound, the relative viability (ABC-1; first compound 1.265 µM) was 0.509, the relative viability (NCI-H1755; first compound 0.04 µM) was 0.375 and the relative viability (NCI-H1755; first compound 0.1265 µM) was 0.644. For the same compound, the relative viability (NCI-H1755; first compound 0.4 µM) was 0.695, the relative viability (NCI-H1755; first compound 1.265 µM) was 0.574 and the relative viability (CAL-12T; first compound 0.04 µM) was 0.57. It also gave a relative viability (CAL-12T; first compound 0.1265 µM) of 0.354, a relative viability (CAL-12T; first compound 0.4 µM) of 0.519 and a relative viability (CAL-12T; first compound 1.265 µM) of 0.268. For the same compound, the relative viability (NCI-H1395; first compound 0.04 µM) was 0.726, the relative viability (NCI-H1395; first compound 0.1265 µM) was 0.636 and the relative viability (NCI-H1395; first compound 0.4 µM) was 0.534. It also gave a relative viability (NCI-H1395; first compound 1.265 µM) of 0.606, a relative viability (NCI-H2087; first compound 0.04 µM) of 0.182 and a relative viability (NCI-H2087; first compound 0.1265 µM) of 0.192. For the same compound, the relative viability (NCI-H2087; first compound 0.4 µM) was 0.221, the relative viability (NCI-H2087; first compound 1.265 µM) was 0.164 and the relative viability (ChaGo-K-1; first compound 0.04 µM) was 0.712. It also gave a relative viability (ChaGo-K-1; first compound 0.1265 µM) of 0.651, a relative viability (ChaGo-K-1; first compound 0.4 µM) of 0.56 and a relative viability (ChaGo-K-1; first compound 1.265 µM) of 0.536. It also gave a relative viability (NCI-H1944; first compound 0.04 µM) of 0.687, a relative viability (NCI-H1944; first compound 0.1265 µM) of 0.836 and a relative viability (NCI-H1944; first compound 0.4 µM) of 0.716. The relative viability (NCI-H1944; first compound 1.265 µM) was 0.702, the relative viability (LU99A; first compound 0.04 µM) was 0.259 and the relative viability (LU99A; first compound 0.1265 µM) was 0.254. The relative viability (LU99A; first compound 0.4 µM) was 0.244, the relative viability (LU99A; first compound 1.265 µM) was 0.273 and the relative viability (UMC-11; first compound 0.04 µM) was 0.919. It also gave a relative viability (UMC-11; first compound 0.1265 µM) of 1.05, a relative viability (UMC-11; first compound 0.4 µM) of 0.974 and a relative viability (UMC-11; first compound 1.265 µM) of 0.738. For the same compound, the relative viability (RERF-LC-KJ; first compound 0.04 µM) was 1.32, the relative viability (RERF-LC-KJ; first compound 0.1265 µM) was 1.19 and the relative viability (RERF-LC-KJ; first compound 0.4 µM) was 1.1. For the same compound, the relative viability (RERF-LC-KJ; first compound 1.265 µM) was 0.645, the relative viability (NCI-H1651; first compound 0.04 µM) was 0.927 and the relative viability (NCI-H1651; first compound 0.1265 µM) was 0.863. It also gave a relative viability (NCI-H1651; first compound 0.4 µM) of 0.6, a relative viability (NCI-H1651; first compound 1.265 µM) of 0.638 and a relative viability (NCI-H2405; first compound 0.04 µM) of 0.778. It also gave a relative viability (NCI-H2405; first compound 0.1265 µM) of 0.831, a relative viability (NCI-H2405; first compound 0.4 µM) of 0.579 and a relative viability (NCI-H2405; first compound 1.265 µM) of 0.535. For the same compound, the relative viability (LC-2-ad; first compound 0.04 µM) was 0.874, the relative viability (LC-2-ad; first compound 0.1265 µM) was 1.08 and the relative viability (LC-2-ad; first compound 0.4 µM) was 0.822. The relative viability (LC-2-ad; first compound 1.265 µM) was 0.566, the relative viability (NCI-H3122; first compound 0.04 µM) was 0.0905 and the relative viability (NCI-H3122; first compound 0.1265 µM) was 0.0913. For the same compound, the relative viability (NCI-H3122; first compound 0.4 µM) was 0.0809, the relative viability (NCI-H3122; first compound 1.265 µM) was 0.0888 and the relative viability (PC-3 [JPC-3]; first compound 0.04 µM) was 0.678. It also gave a relative viability (PC-3 [JPC-3]; first compound 0.1265 µM) of 0.761, a relative viability (PC-3 [JPC-3]; first compound 0.4 µM) of 0.619 and a relative viability (PC-3 [JPC-3]; first compound 1.265 µM) of 0.569. It also gave a relative viability (NCI-H2170; first compound 0.04 µM) of 0.745, a relative viability (NCI-H2170; first compound 0.1265 µM) of 0.804 and a relative viability (NCI-H2170; first compound 0.4 µM) of 0.794. The relative viability (NCI-H2170; first compound 1.265 µM) was 0.491.
